From patent US20210017607A1, “Methods of Predicting Responsiveness to Cancer Therapies” (The University of Chicago, priority 2019, published 2021)

System: Myc-CAP-PTEN^−/− tumors
Assay: Myc-CAP-PTEN−/− syngeneic tumors in vivo (growth, flow cytometry)
Set-up: species or system mouse
Method: FIGS. 35A-35D. […] (35A) Myc-CAP-PTEN^−/− cells were treated with copanlisib […] (IC90 concentration) in vitro for 24 hours, and protein extracts were harvested for western blotting analysis with the indicated antibodies to analyze PI3K activation. (35B) Supernatants from (35A) were harvested for cytokine array profiling. n=3 independent in vitro experiments. (35C) Mice bearing Myc-CAP-PTEN^−/− established syngeneic tumors (200 mm^3) were treated with copanlisib (14 mg/kg, every other day, until tumors reached 2000 mm^3). Tumor volumes were monitored daily and graphed. (35D) At the end of treatment, tumors were analyzed by flow cytometry for tumor infiltrating immune cell subsets. n=5 mice per group.
FIGS. 37A and 37B. Myc-CAP-PTEN deficient cancers are resistant to ADT/PARPi/PI3Ki/combination due to an absence of macrophage infiltration/activation and secondary CD8/CD4 T cell infiltration following treatment. Syngeneic PTEN-proficient and PTEN-deficient Myc-CAP mice were treated with a single dose of degarelix, rucaparib (PARP inhibitor), BKM120 (pan-PI3K inhibitor), or anti-PD-L1 antibody, singly and in combination for 3 weeks. (37A) Tumor volumes were monitored, as indicated. (37B) Tumors were harvested at the end of treatment and macrophage infiltration and activation (upper left and right panels), and CD4 and CD8 T cell infiltration (lower left and right panels, respectively) were analyzed by flow cytometry. n=3 animals/group.
FIG. 44. […] Syngeneic mice bearing established PTEN-proficient (PTEN^+/+) and PTEN-deficient (PTEN^−/−) Myc-CAP tumors (200 mm^3) were treated with DMXAA ([…] intra-tumoral dose) for 12 days. Tumor volumes were monitored daily and graphed relative to untreated groups. n=3-5 mice per group.
(§1) FIGS. 45A and 45B. […] Syngeneic mice bearing established PTEN-proficient (PTEN^+/+) and PTEN-deficient (PTEN^−/−) Myc-CAP tumors (200 mm^3) were treated with DMXAA (500 μg, single intra-tumoral dose) for 12 days. The harvested tumors were analyzed by flow cytometry for CD45 (45A) and tumor infiltrating immune cell subsets (45B). n=3-5 mice per group.
FIGS. 46A-46C. […] Syngeneic mice bearing established PTEN-proficient (PTEN^+/+) or PTEN-deficient (PTEN^−/−) Myc-CAP tumors (200 mm^3) were treated with DMXAA (500 μg, single intra-tumoral dose) for 12 days. The harvested tumors were analyzed by flow cytometry for activation status of immune cells: (46A) MHC-II/PD-L1 expression on macrophages; (46B) 41bb/PD-1 expression on CD4+FoxP3-T-cells and (46C) on CD8+T-cells. n=3-5 mice per group.
as §1, with “FIG. 47.” for “FIGS. 45A and 45B.”, “CD4+T-cells subsets, specifically FoxP3+” for “CD45 (45A)”, “FoxP3− fractions.” for “tumor infiltrating immune cell subsets (45B).”
In vivo drug efficacy studies using murine tumor models. Wild-type (WT) C57BL/6J, FVB/NJ mice were purchased from Jackson laboratories and mice were kept in an AALAC (American Association for the Accreditation of Laboratory Animal Care) certified barrier facility at the University of Chicago. Animal work was carried out according to approved IACUC (Institutional Animal Care and Use Committee protocols). For Myc-CAP cell line based experiments, mice aged 8-10 weeks were engrafted with 1 million cells re-suspended in 1×PBS, under anesthesia. Treatments were started when tumor volumes reached approximately 250-400 mm^3, and mice were randomly allocated to treatment groups as indicated. Tumor volume was calculated using the formula: 0.5×longest diameter×(shortest diameter)^2. Euthanasia was performed for tumor ulceration and/or tumor diameter >2 cm, as per IACUC-approved protocol. All in vivo treatments were done for 20-23 days and tumor volume measurements were collected on a daily basis. For ID8 tumors, the weights (gm) as well as the abdominal girth (mm) measurements were recorded daily. […]

[1] = DMXAA 500 μg single intra-tumoral dose, 12 days
[2] = relative to PTEN-proficient counterparts
[3] = copanlisib 14 mg/kg every other day

SMILES | Gr-MDSCs [1] | global immune infiltration (CD45) [1] | tumor responsiveness of PTEN-deficient relative to PTEN-proficient Myc-CAP tumors (DMXAA single intra-tumoral dose, 12 days) | response of PTEN-deficient prostate cancers to direct STING agonist (PTEN-deficient prostate cancer murine models (Example 1)) | macrophage, CD4 and CD8 T-cell activation [2] | regulatory T-cell infiltration [2] | MDSC infiltration [3] | tumor growth [3]
Cc1ccc2c(=O)c3cccc(CC(=O)O)c3oc2c1C [DMXAA, 5,6-Dimethylxanthenone-4-acetic Acid] | trend towards decreasing Gr-MDSCs | increases global immune infiltration | more responsive | resistant | selectively increases macrophage, CD4 and CD8 T-cell activation | increases regulatory T-cell infiltration | – | –
COc1c(OCCCN2CCOCC2)ccc2c1N=C(NC(=O)c1cnc(N)nc1)N1CCN=C21 [copanlisib] | – | – | – | – | – | – | decreasing | retards growth
